Assays:
[1] = test system: cardiotoxicity induced by doxorubicin; assay: cardiotoxicity induced by doxorubicin chemotherapy, ejection fraction via ultrasound; format: in vivo, C57Bl/6 mice
Experimental: Male C57Bl/6 mice (˜10 weeks old) were given a 15 mg/kg i.p. bolus of doxorubicin to induce cardiotoxicity. Assessment of ejection fraction was performed via ultrasound at baseline (day 0, prior to any doxorubicin administration) and on days 3, 7, 14 or 28 days post administration. Dosing of placebo or FDY-5301 was done in a blinded fashion, as was all ultrasound analysis.
A single 2 mg/kg i.v. bolus of FDY-5301 was administered by the retro orbital (r.o.) route and immediately followed by 15 mg/kg doxorubicin i.p. Placebo treated animals received saline. A Vevo® 2100 imaging system was used to assess cardiac function on days 0 (baseline), 7, 14, & 28.
A single 2 mg/kg i.v. bolus of NaI was administered by the retro orbital (r.o.) route followed immediately by the s.c. implantation of an osmotic pump designed to deliver 2 mg/kg/day of NaI. The mice then received a 15 mg/kg doxorubicin i.p. bolus. Placebo treated animals received saline (and an osmotic pump filled with saline). Cardiac function was assessed on days 0 (baseline), 3, 7 & 14.

[2] = test system: Balb/c mice bearing subcutaneous CT26 tumors; assay: muscle histology and morphometry (muscle fiber area) in the CT26 cancer cachexia model; format: in vivo; conditions: for muscle fiber area, gastrocnemius / muscle fiber area, soleus: histopathological images vs vehicle control; for muscle fiber area, tibialis anterior: vs vehicle control
Experimental: (§1) The anti-cachectic activity of iodide was evaluated in a cancer cachexia model of Balb/c mice bearing subcutaneous CT26 tumors. NaI was administered as FDY-5301, which is sodium iodide solubilized in water and balanced with sodium chloride to create an isotonic saline solution, with a pH between 7.0 and 9.5. As shown in the experimental design depicted in FIG. 1, when tumor volume reached 100 mm^3, the mice were either left untreated, or treated with one of the following: (i) vehicle control (0.5% CMC); (ii) NaI (FDY-5301) at 2 mg/kg i.v., QD×3 weeks; (iii) bucindolol at 2 mg/kg p.o., QD×3 weeks; or (iv) NaI (FDY-5301) at 40 ug/day slow release via Alzet osmotic pump (flow rate 0.11 uL/h) s.c. for 20 days. On day 14, 1 hour post dosing, blood samples were taken from three animals from groups 2, 3, and 5. On day 20, the animals were humanely euthanized and tumor and animal characteristics were measured. Prior to euthanasia, blood samples were collected for evaluation of biochemical parameters. Following euthanasia, tumor tissue and organs, muscles were collected and weighed.
Morphometric evaluation of transverse sections of muscle fiber area (um2) was performed on tibialis anterior, gastrocnemius, and soleus muscles from the animals described in Example 1, for evaluation of anti-cachectic properties of FDY-5301 and bucindolol in the cancer cachexia model.

[3] = test system: Balb/c mice bearing subcutaneous CT26 tumors; assay: cancer cachexia model of Balb/c mice bearing subcutaneous CT26 tumors; format: in vivo; conditions: for TNF-α level / creatine kinase level / serum LDL level / serum triglyceride level / % tumor grow inhibition (TGI) / serum VLDL level: vs vehicle control; for % tumor grow inhibition (TGI): day 20; for IL-6 level / kidney weight / lung weight / spleen weight / serum levels of TNF-α: test groups vs vehicle control; for IL-6 level: FIG. 10B; for kidney weight / lung weight / spleen weight / serum levels of TNF-α: significance; for serum levels of TNF-α: FIG. 10A; for body weight: throughout the experimental period
Experimental: as §1

[4] = slow release via Alzet osmotic pump

In the case of [I-].[Na+] [FDY-5301, sodium iodide], the “ejection fraction (EF)” value ([1]; 2 mg/kg i.v. bolus + s.c. osmotic pump 2 mg/kg/day, 15 mg/kg doxorubicin i.p., by day 14, vs placebo) is reported as “stabilized EF”, the ejection fraction ([1]; combined results of bolus and bolus + continuous studies, delivered at the time of chemotherapy) is reported as “prevents a significant reduction in ejection fraction” and the “change in ejection fraction from baseline” value ([1]; single 2 mg/kg i.v. bolus then 15 mg/kg doxorubicin i.p., days 7, 14, 28, vs placebo) is reported as “less of a reduction in change in ejection fraction from baseline”. The “muscle fiber area, gastrocnemius” value ([2]; 40 ug/day Alzet pump) was “increased muscle fiber area”, the “muscle fiber area, soleus” value ([2]; 40 ug/day Alzet pump) was “increased muscle fiber area” and the “muscle fiber area, tibialis anterior” value ([2]; 40 ug/day slow release via Alzet osmotic pump) was “significant increase”. The “muscle fiber area, tibialis anterior” value ([2]; 40 ug/day slow release via Alzet osmotic pump, listed as FDY-3501) was “increased muscle fiber area”, the “muscle fiber area, gastrocnemius” value ([2]; 2 mg/kg i.v.) was “increased muscle fiber area” and the “muscle fiber area, soleus” value ([2]; 2 mg/kg i.v.) was “increased muscle fiber area”. For the same molecule, the “muscle fiber area, tibialis anterior” value ([2]; 2 mg/kg i.v.) was “Non-significant”, the “muscle fiber area, tibialis anterior” value ([2]; 2 mg/kg i.v., listed as FDY-3501) was “increased muscle fiber area” and the TNF-α level ([3]; 2 mg/kg i.v.) was “non-significantly lower”. The creatine kinase level ([3]; 2 mg/kg i.v.) was “marginal decrease”, the “serum LDL level” value ([3]; 2 mg/kg i.v.) was “non-significant change” and the serum triglyceride level ([3]; 2 mg/kg i.v.) was “marginally lower”. For the same molecule, the “% tumor grow inhibition (TGI)” value ([3]; 40 ug/day slow release via Alzet osmotic pump s.c.) was 23%, the “% tumor grow inhibition (TGI)” value ([3]; 2 mg/kg i.v., QD×3 weeks) was 31% and the TNF-α level [3, 4] was “marginally higher”. For the same molecule, the “serum LDL level” value [3, 4] was “significant increase”, the “serum VLDL level” value [3, 4] was “significant decrease” and the serum triglyceride level [3, 4] was “significantly lower”. For the same molecule, the creatine kinase level ([3]; slow release) was “marginal decrease”, the IL-6 level [3] was “Non-significant” and the kidney weight [3] was “Non-significant”. For the same molecule, the lung weight [3] was “Non-significant”, the spleen weight [3] was “Non-significant” and the “serum levels of TNF-α” value [3] was “Non-Significant”. The body weight ([3]; 2 mg/kg i.v., QD×3 weeks) was “progressive body weight gain” and the body weight [3, 4] was “progressive body weight gain”.

With CC(C)(Cc1c[nH]c2ccccc12)NCC(O)COc1ccccc1C#N (stereo not shown) [bucindolol, reference compound] the “muscle fiber area, gastrocnemius” value ([2]; 2 mg/kg p.o.) was “increased muscle fiber area”, the “muscle fiber area, soleus” value ([2]; 2 mg/kg p.o.) was “increased muscle fiber area” and the TNF-α level ([3]; 2 mg/kg p.o.) was “marginally higher”. The creatine kinase level ([3]; 2 mg/kg p.o.) was “higher level”, the “serum LDL level” value ([3]; 2 mg/kg p.o.) was “non-significant change” and the “serum VLDL level” value ([3]; 2 mg/kg p.o.) was “significant decrease”. For the same molecule, the serum triglyceride level ([3]; bucindolol 2 mg/kg p.o.) was “significantly lower”, the “% tumor grow inhibition (TGI)” value ([3]; 2 mg/kg p.o., QD×3 weeks) was 24% and the IL-6 level [3] was “Non-significant”. For the same molecule, the kidney weight [3] was “Non-significant”, the lung weight [3] was “Non-significant” and the spleen weight [3] was “Non-significant”. For the same molecule, the “serum levels of TNF-α” value [3] was “Non-Significant” and the body weight ([3]; 2 mg/kg p.o., QD×3 weeks) was “progressive body weight gain”.

Source: patent US20220387483A1, “USE OF IODIDE COMPOUNDS FOR THE TREATMENT AND PREVENTION OF CHEMOTHERAPY-ASSOCIATED CACHEXIA AND CARDIOTOXICITY” (FARADAY PHARMACEUTICALS, INC., priority 2019, published 2022)
